# Results reported in ChEMBL document CHEMBL1201862, “PubChem BioAssay data set” (2004).
# “And” between values parts separate entries of the source, which are not always exact repeats. Equal values may be shown once. Where a name gives a salt, the structure may show the parent alone. The source made the active and inactive calls.
# Tests used:
# [1] = growth suppression of PTEN-null colon cells, dose response, cell-based, HCT116 PTEN knockout (AID 1047); format: functional;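 note: HCT116 colon tumor cells with PTEN knocked out; cells exposed to compound for 60 hours before readout; potency for loss of cell viability measured by luminescence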
# [2] = growth suppression of beta-catenin-knockout colon cells, dose response, cell-based, HCT116, human colon tumor (AID 1045); format: functional;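 note: HCT116 colon tumor cells with beta catenin knocked out; cells exposed to compound for 60 hours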
# [3] = microbe, parasite or virus in culture; format: functional; conditions: Mycobacterium tuberculosis
# [4] = Luminescence Cell-Based Dose Retest to Confirm Inhibitors of Cancer Stem Cells. [Related pubchem assays (depositor defined):AID2717, AID2721]; format: functional; conditions: Homo sapiens
# Cytochrome P450 3A4 = Cytochrome P450 3A4 (Homo sapiens, UniProt P08684); conditions: Potency;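 note: confirmatory qHTS run detecting inhibitors and substrates of CYP3A4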
# Cytochrome P450 3A4, sequence (P08684 whole entry): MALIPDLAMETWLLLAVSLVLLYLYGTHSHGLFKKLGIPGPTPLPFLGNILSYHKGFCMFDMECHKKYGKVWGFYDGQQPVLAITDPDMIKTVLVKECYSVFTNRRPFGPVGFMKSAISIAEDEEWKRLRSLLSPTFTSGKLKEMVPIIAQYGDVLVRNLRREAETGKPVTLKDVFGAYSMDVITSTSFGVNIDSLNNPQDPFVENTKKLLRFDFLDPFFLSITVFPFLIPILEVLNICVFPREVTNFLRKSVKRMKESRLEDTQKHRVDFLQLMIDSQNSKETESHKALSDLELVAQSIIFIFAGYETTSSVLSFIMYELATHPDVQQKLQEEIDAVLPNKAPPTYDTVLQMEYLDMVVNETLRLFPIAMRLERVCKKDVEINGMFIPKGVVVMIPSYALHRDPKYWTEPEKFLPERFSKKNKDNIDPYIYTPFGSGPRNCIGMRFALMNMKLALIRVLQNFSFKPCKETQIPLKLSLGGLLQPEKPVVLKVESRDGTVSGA
# [5] = biological target: T1, Corticotropin-releasing factor receptor 2/Corticotropin-releasing factor-binding protein (Homo sapiens, UniProt P24387+Q13324); assay: activators of CRF receptor 2 with binding protein – uHTS hits, confirmation (AID 602473); format: functional; conditions: read-out: EC50_Mean
# T1 sequence (Q13324 whole entry): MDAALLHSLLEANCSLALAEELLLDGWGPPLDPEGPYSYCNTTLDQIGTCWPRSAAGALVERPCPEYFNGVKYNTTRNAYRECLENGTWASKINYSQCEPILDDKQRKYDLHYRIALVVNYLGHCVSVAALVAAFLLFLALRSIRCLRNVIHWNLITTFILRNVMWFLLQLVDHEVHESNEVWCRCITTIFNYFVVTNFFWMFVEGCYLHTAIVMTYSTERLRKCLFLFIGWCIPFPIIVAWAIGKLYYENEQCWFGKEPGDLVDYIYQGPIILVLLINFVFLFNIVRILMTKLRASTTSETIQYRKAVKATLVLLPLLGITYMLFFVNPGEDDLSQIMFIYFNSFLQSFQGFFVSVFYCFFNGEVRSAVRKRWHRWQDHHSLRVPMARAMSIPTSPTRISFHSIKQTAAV
# T1 sequence (P24387 whole entry): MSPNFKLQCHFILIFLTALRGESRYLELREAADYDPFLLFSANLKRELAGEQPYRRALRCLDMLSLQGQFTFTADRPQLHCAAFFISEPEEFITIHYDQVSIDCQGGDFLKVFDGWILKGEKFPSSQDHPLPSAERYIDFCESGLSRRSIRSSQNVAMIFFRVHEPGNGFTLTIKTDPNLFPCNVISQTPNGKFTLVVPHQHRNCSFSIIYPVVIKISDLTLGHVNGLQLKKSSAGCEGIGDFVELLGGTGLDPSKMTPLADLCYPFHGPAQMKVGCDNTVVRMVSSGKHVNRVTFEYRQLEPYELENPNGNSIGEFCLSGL
# [6] = biological target: T1, Corticotropin-releasing factor receptor 2/Corticotropin-releasing factor-binding protein; assay: Dose Response confirmation of uHTS hits for small molecule antagonists of the CRF-binding protein and CRF-R2 receptor complex.; format: functional; conditions: read-out: IC50_Mean
# cells = format: functional
# [7] = inhibitors of clade B AD8 Env fusion, dose response, cell-based, cherry-pick (AID 652062); format: functional;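 note: luciferase signal from cell-cell fusion driven by HIV-1 clade B AD8 Env; potency is for inhibitors of fusion seen as a drop in luminescence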
# [8] = inhibitors of HIV Env-driven cell fusion, dose response, cherry-pick (AID 652057); format: functional, cell-based
# INS1 = assay: beta cell apoptosis inhibitors, cytokine rescue, dose response, luminescence, retest (AID 449756); format: functional, cell-based; conditions: Rattus norvegicus;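 note: cell death triggered by IL-1 beta plus TNF-alpha plus IFN-gamma mixture; protective hits raise ATP signal compared with cytokine alone wells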
# Streptococcus = assay: Group A Streptococcus viability loss, dose response, counter-screen for streptokinase expression inhibitor project, luminescence, BacTiterGlo (AID 1915); format: functional, organism-based;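 note: potency for reduction of bacterial viability or growth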
# [9] = tested on: Streptococcus sp. 'group A'; assay: growth inhibition of control SK(-) GAS strain, dose response, counter-screen for streptokinase expression inhibitor project, luminescence, kanamycin, BacTiterGlo, confirmation (AID 1900); format: functional, organism-based
# Streptokinase A = biological target: T2, Streptokinase A (Streptococcus pyogenes serotype M1, UniProt P10520); assay: S. pyogenes streptokinase expression inhibitors, potency, dose response, plasminogen activation absorbance, OD405 (AID 1914); format: functional, Streptococcus pyogenes M1 GAS;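 note: secreted streptokinase activity via plasminogen activation per viability signal from cell pellet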
# T2 sequence (P10520 whole entry): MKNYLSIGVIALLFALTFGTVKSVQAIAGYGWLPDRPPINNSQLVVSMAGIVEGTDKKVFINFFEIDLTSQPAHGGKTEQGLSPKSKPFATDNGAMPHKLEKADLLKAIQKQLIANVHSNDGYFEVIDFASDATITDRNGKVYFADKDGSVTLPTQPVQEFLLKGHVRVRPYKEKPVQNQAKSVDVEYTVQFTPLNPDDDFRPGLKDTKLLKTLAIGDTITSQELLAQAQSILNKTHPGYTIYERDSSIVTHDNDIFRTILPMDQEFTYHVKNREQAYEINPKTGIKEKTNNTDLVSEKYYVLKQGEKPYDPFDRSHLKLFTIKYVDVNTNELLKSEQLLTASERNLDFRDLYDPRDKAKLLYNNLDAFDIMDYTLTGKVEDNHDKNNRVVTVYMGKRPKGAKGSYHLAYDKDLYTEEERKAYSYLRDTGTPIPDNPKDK
# Paired box protein Pax-8 = Paired box protein Pax-8 (Homo sapiens, UniProt Q06710); assay: inhibitors of PAX8-driven TPO luciferase reporter, dose response, RMG-I cells, cherry-pick (AID 687027); format: functional, cell-based;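 note: luciferase reporter driven by Pax8 target thyroperoxidase promoter measured by SteadyGlo luminescence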
# Paired box protein Pax-8, sequence (Q06710 whole entry): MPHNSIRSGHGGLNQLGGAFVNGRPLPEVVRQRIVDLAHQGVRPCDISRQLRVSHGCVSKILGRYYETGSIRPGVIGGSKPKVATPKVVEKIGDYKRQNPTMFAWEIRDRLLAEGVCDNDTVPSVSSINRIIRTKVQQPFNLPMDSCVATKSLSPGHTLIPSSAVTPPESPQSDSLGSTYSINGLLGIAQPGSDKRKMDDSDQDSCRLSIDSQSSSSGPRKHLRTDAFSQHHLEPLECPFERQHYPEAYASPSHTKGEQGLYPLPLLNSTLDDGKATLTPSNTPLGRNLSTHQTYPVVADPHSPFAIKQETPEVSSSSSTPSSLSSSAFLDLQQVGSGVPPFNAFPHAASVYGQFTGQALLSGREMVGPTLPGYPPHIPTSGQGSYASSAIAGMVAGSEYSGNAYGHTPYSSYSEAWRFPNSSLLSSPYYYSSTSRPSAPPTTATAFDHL
# [10] = control 3'UTR Renilla luciferase suppression, dose response, counter-screen for Shn3 inhibitor project, cell-based, Clone20-Shn3RL, cherry-picked (AID 624133); format: functional
# [11] = HepG2 cell cytotoxicity, dose response, cytotoxicity control for Shn3 inhibitor project, CellTiter-Glo, cherry-picked (AID 624134); format: functional, cell-based
# [12] = Shn3 3'UTR reporter inhibitors, dose response, cell-based, Clone20 osteoblasts, firefly luciferase, cherry-picked (AID 624132); format: functional;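 note: firefly luciferase luminescence from reporter carrying the Shn3 3'UTR in osteoblasts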
# [13] = inhibitors of intracellular T. cruzi replication, confirmation, NIH3T3 host cells, beta-gal luminescence (AID 2044); format: functional, cell-based;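 note: intracellular parasites grown in NIH/3T3 mouse fibroblasts as host cells; luminescent beta-galactosidase reporter signal from transgenic T. cruzi replicating inside host cells; inhibitors lower the luminescence signal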
# [14] = cytotoxicity toward NIH3T3 fibroblasts, dose response, counter-screen, cell-based, ATP luminescence, mouse fibroblasts (AID 2010); format: functional;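 note: cells exposed to compound for about 90 hours before reading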
structure (smiles),measurement,setting,value
CCOC(=O)c1cc2c(N)c(C(=O)c3cc(C#N)c(SC)nc3C)sc2nc1C,EC50,[1],8.22 µM (active)
same,EC50,[2],8.35 µM (active)
Cc1nn(Cc2ccccc2)c(C)c1C(=O)OCC(=O)c1cc(C)n(CC(F)(F)F)c1C,CC50,[3],> 40 µM (active)
same,AC50,[4],4.47 µM (active)
CCCn1c(-c2ccc(F)cc2)nc2c(N3CCC(N(C)C)C3)nc(C)nc21 (stereo unspecified),AC50,Cytochrome P450 3A4,15.8 µM (inconclusive)
O=C(CCC(=O)OCC(F)(F)C(F)F)NCc1ccccc1,EC50,[5],> 53 µM (inactive)
same,IC50,[6],> 47.1 µM (inactive)
CC1=C(C(=O)OC(C)C)C(c2cccs2)N2C(=O)C(C)SC2=N1 (stereo unspecified),EC50,[5],> 53 µM (inactive)
same,IC50,[6],> 47.1 µM (inactive)
CN=C(S)N=Nc1c(O)[nH]c2ccc(C(C)C)cc12,EC50,[1],22.4 µM (active)
same,EC50,[2],17.6 µM (active)
Cc1nn(Cc2ccccc2)c(C)c1NC(=O)c1cc2nc(-c3ccco3)cc(C(F)(F)F)n2n1,CC50,[3],> 40 µM (active)
CCC(=O)Nc1cccc(C(=O)/C=C/c2cc(Br)ccc2OC)c1,EC50,[1],1.3 µM (active)
same,EC50,[2],0.933 µM (active)
O=C(CCSc1nnc(-c2ccccc2)o1)N1CCOCC1,IC50,cells,20.7 µM (active)
Nc1c(C(=O)Nc2cccc(Cl)c2Cl)sc2nc(-c3cccnc3)ccc12,EC50,[1],5.65 µM (active)
same,EC50,[2],11 µM (active)
CC(C)n1c(NCCc2ccccc2)nc2c1c(=O)n(C)c(=O)n2C,AC50,[7],17.9 µM (active)
same,AC50,[8],21.2 µM (active)
CC(C)(C)Sc1ccc2nc3c(n2c1)CCCC3,AC50,INS1,14.7 µM (active)
same,IC50,cells,29 µM (active)
c1ccc(Nc2nc(N3CCCCC3)nc(N3CCNCC3)n2)cc1,EC50,[1],12.7 µM (active)
same,CC50,[3],23.5 µM (active)
same,EC50,[2],14.3 µM (active)
COc1ccc(N(CC(=O)Nc2cc(Cl)ccc2C)S(=O)(=O)c2c(C)n[nH]c2C)cc1,CC50,[3],> 40 µM (active)
C/C(Cl)=C\COc1cc(C)nc2c(Br)cccc12,CC50,[3],> 40 µM (active)
O=c1c(O)c(-c2cccs2)oc2ccccc12,EC50,Streptococcus,> 150 µM (not active)
same,CC50,[3],> 40 µM (active)
same,EC50,[9],3.69 µM (active)
same,EC50,Streptokinase A,> 150 µM (not active)
O=C(NC1CC2CCC1C2)C1COc2ccccc2O1 (stereo unspecified),IC50,cells,> 50 µM (active)
Cc1cc(NC2CCCCC2)nc(-c2ccccc2O)n1,CC50,[3],> 40 µM (active)
O=C(NNc1c(F)c(F)cc(F)c1F)c1cc2ccccc2oc1=O,IC50,cells,48 µM (active)
Cc1ccc(NC(=O)Cn2cc(S(=O)(=O)c3ccc(C)cc3)c(=O)c3cc(F)ccc32)cc1,EC50,[1],10.9 µM (active)
same,EC50,[2],9.08 µM (active)
COc1ccccc1/C=C/C1=CC2(C)CC1(C)C(c1ccccc1OC)CC2=O (stereo unspecified),AC50,Cytochrome P450 3A4,3.16 µM (inconclusive)
CCOc1ccc(NC(=O)Nc2cc(OCC(F)(F)F)cc(OCC(F)(F)F)c2)cc1,EC50,[1],16.9 µM (active)
same,AC50,Paired box protein Pax-8,8.08 µM (active)
same,EC50,[2],19.1 µM (active)
Cc1ccc(C)c(-c2nnc(NC(=O)COc3ccccc3)o2)c1,EC50,Streptococcus,23.1 µM (active)
same,IC50,cells,5.98 µM (active)
same,EC50,[9],1.18 µM (active)
same,EC50,Streptokinase A,> 150 µM (not active)
Cc1nc(NC2CCCCC2)c2nc(-c3ccccc3)n(CCN(C)C)c2n1,AC50,Cytochrome P450 3A4,25.1 µM (inconclusive)
COc1ccc(COC(=O)CCNC(=O)c2ccc(Cl)cc2)cc1,IC50,cells,> 50 µM (active)
CN(C)c1ccc(C(=N)c2ccc(N(C)C)cc2)cc1,AC50,Cytochrome P450 3A4,15.8 µM (inconclusive)
COC(=O)C(CC(=O)c1cccc(OC)c1)c1ccc(F)cc1 (stereo unspecified),EC50,[5],> 53 µM (inactive)
same,IC50,[6],> 47.1 µM (inactive)
COc1ccc(CC(N)c2csc(NC(=O)NC(c3ccccc3)c3ccccc3)n2)cc1 (stereo unspecified),AC50,[10],19.3 µM (active)
same,AC50,[11],21.1 µM (active)
same,AC50,[12],6.4 µM (active)
CC(C)c1ccc(NC(=O)Nc2nc(C(N)COCc3ccccc3)cs2)cc1 (stereo unspecified),AC50,[10],10.8 µM (active)
same,AC50,[11],18.1 µM (active)
same,AC50,[12],5.99 µM (active)
Cc1cccc(NC(=O)CSc2nc3ccccc3c(=O)n2C)c1C,AC50,[10],15.2 µM (active)
same,AC50,[11],39 µM (active)
same,AC50,[12],2.98 µM (active)
O=C1N=C(N/N=C/c2ccccn2)SC1Cc1cccc(SC(F)F)c1 (stereo unspecified),EC50,[13],0.528 µM (active)
same,CC50,[3],14.7 µM (active)
same,EC50,[14],4.95 µM (active)
C[C@@H]1CN([C@H](C)CO)C(=O)Cc2cc(NC(=O)Cc3ccccc3)ccc2O[C@@H]1CN(C)Cc1ccc(C(F)(F)F)cc1,AC50,Paired box protein Pax-8,11.8 µM (active)
COc1ccc(NC(=O)Nc2ccc3c(c2)C(=O)N([C@H](C)CO)C[C@H](C)[C@H](CN(C)S(=O)(=O)c2ccc(OC)cc2)O3)cc1,AC50,[7],4.67 µM (active)
same,AC50,[8],2.08 µM (active)
C[C@@H]1CCCCO[C@@H](CN(C)Cc2ccc(C(F)(F)F)cc2)[C@H](C)CN([C@H](C)CO)C(=O)c2cc(NS(=O)(=O)c3cccs3)ccc2O1,AC50,Paired box protein Pax-8,9.08 µM (active)
COC(=O)C1=C(C)N(Cc2ccccc2)[C@]23O[C@](C(=O)OC)(C(=O)N2C1c1ccccc1)C1C(=O)N(C)C(=O)C13 (stereo partly specified),AC50,Cytochrome P450 3A4,2.51 µM (inconclusive) and 3.16 µM (inconclusive)
CC(=O)O[C@H]1C[C@H](O[C@H]2[C@@H](O)C[C@H](O[C@H]3[C@@H](O)C[C@H](O[C@H]4CC[C@@]5(C)[C@H](CC[C@@H]6[C@@H]5CC[C@]5(C)[C@@H](C7=CC(=O)OC7)CC[C@]65O)C4)O[C@@H]3C)O[C@@H]2C)O[C@H](C)[C@H]1O[C@@H]1O[C@H](CO)[C@@H](O)[C@H](O)[C@H]1O,AC50,Paired box protein Pax-8,0.345 µM (active)
Cc1cc(O)cc(=O)o1,AC50,Cytochrome P450 3A4,39.8 µM (inconclusive)
CC(=O)Oc1cc(OC(C)=O)c2c(=O)cc(-c3ccc(OC(C)=O)c(OC(C)=O)c3)oc2c1,AC50,Cytochrome P450 3A4,0.794 µM (inconclusive)
CCCCC(CC)CN=C(N)N=C(N)NCCCCCCNC(N)=NC(N)=NCC(CC)CCCC (stereo unspecified) [ALEXIDINE HYDROCHLORIDE],AC50,INS1,2.26 µM (active)
same,CC50,[3],10.5 µM (active)
CC1(C)[C@@H](O)CC[C@]2(C)[C@H]3C(=O)C=C4[C@@H]5C[C@@](C)(C(=O)O)CC[C@]5(C)CC[C@@]4(C)[C@]3(C)CC[C@@H]12 [ENOXOLONE],AC50,Cytochrome P450 3A4,15.8 µM (inconclusive)
